Experimental data published in US6541450B1, “Parathyroid hormone analogues for the treatment of osteoporosis” (National Research Council of Canada, priority 1994, dated 2003).
Where a SMILES comes first, the peptide text is derived from it. Bridges are numbered along the chain shown (N, C = ends). [ ]: non-standard residue; d: D form. Nle = CCCC[C@H](N)C(=O)O; Orn = NCCC[C@H](N)C(=O)O

Target: T1, adenylyl cyclase, ROS 17/2 cells (Rattus norvegicus, UniProt P25961)
T1 sequence (P25961 27-591): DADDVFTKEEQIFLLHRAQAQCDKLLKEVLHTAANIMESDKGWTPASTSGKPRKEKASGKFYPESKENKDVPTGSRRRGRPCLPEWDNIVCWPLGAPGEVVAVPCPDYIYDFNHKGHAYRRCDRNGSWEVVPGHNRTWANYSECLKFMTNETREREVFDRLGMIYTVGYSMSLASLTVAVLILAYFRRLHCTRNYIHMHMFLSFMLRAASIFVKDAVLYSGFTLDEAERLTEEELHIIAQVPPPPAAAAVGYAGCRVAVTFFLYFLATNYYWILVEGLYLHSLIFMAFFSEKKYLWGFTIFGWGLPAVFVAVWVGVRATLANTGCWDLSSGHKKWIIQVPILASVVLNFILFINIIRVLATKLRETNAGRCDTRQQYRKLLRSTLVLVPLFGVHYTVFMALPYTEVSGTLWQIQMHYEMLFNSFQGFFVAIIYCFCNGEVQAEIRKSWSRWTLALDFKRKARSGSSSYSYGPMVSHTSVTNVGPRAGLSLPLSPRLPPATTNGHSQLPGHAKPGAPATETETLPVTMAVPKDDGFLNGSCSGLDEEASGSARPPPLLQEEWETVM
Test: Adenylyl cyclase stimulation, [3H]-cyclic AMP production in ROS 17/2 cells
Format: cell-based
Details: ROS 17/2 cells; concentration for half-maximal increase in AC activity; read-out: Adenylyl Cyclase (EC50)

SMILES | EC50 [nM]
CC[C@H](C)[C@H](NC(=O)[C@H](CCC(=O)O)NC(=O)[C@H](CO)NC(=O)[C@@H](NC(=O)[C@@H](N)CO)C(C)C)C(=O)N[C@@H](CCC(N)=O)C(=O)N[C@@H](CC(C)C)C(=O)N[C@@H](CCSC)C(=O)N[C@@H](Cc1c[nH]cn1)C(=O)N[C@@H](CC(N)=O)C(=O)N[C@@H](CC(C)C)C(=O)NCC(=O)N[C@@H](CCCCN)C(=O)N[C@@H](Cc1c[nH]cn1)C(=O)N[C@@H](CC(C)C)C(=O)N[C@@H](CC(N)=O)C(=O)N[C@@H](CO)C(=O)N[C@@H](CCSC)C(=O)N[C@@H](CCC(=O)O)C(=O)N[C@@H](CCCNC(=N)N)C(=O)N[C@H](C(=O)N[C@H]1CSSC[C@@H](C(=O)N[C@@H](CC(C)C)C(=O)N[C@@H](CC(C)C)C(=O)N[C@@H](CCC(N)=O)C(=O)N[C@@H](CC(=O)O)C(=O)N[C@H](C(N)=O)C(C)C)NC(=O)[C@H](CCCNC(=N)N)NC(=O)[C@H](CC(C)C)NC(=O)[C@H](Cc2c[nH]c3ccccc23)NC1=O)C(C)C [[Cys^22, Cys^26, Leu^27]cyclo(Cys^22—Cys^26)—hPTH—(1-31)-NH2] (H-SVSEIQLMHNLGKHLNSMERVCWLRCLLQDV-NH2; disulfide 22-26) | 16
CC[C@H](C)[C@H](NC(=O)[C@H](CCC(=O)O)NC(=O)[C@H](CO)NC(=O)[C@@H](NC(=O)[C@@H](N)CO)C(C)C)C(=O)N[C@@H](CCC(N)=O)C(=O)N[C@@H](CC(C)C)C(=O)N[C@@H](CCSC)C(=O)N[C@@H](Cc1c[nH]cn1)C(=O)N[C@@H](CC(N)=O)C(=O)N[C@@H](CC(C)C)C(=O)NCC(=O)N[C@@H](CCCCN)C(=O)N[C@@H](Cc1c[nH]cn1)C(=O)N[C@@H](CC(C)C)C(=O)N[C@@H](CC(N)=O)C(=O)N[C@@H](CO)C(=O)N[C@@H](CCSC)C(=O)N[C@@H](CCC(=O)O)C(=O)N[C@@H](CCCNC(=N)N)C(=O)N[C@H](C(=O)N[C@@H](CCC(=O)O)C(=O)N[C@@H](Cc1c[nH]c2ccccc12)C(=O)N[C@@H](CC(C)C)C(=O)N[C@@H](CCCNC(=N)N)C(=O)N[C@H]1CSSC[C@@H](C(=O)N[C@H](C(N)=O)C(C)C)NC(=O)[C@H](CCC(N)=O)NC(=O)[C@H](CC(C)C)NC(=O)[C@H](CC(C)C)NC1=O)C(C)C [[Cys^26, Cys^30, Leu^27]cyclo(Cys^26—Cys^30)—hPTH—(1-31)-NH2] (H-SVSEIQLMHNLGKHLNSMERVEWLRCLLQCV-NH2; disulfide 26-30) | 24
CC[C@H](C)[C@H](NC(=O)[C@H](CCC(=O)O)NC(=O)[C@H](CO)NC(=O)[C@@H](NC(=O)[C@@H](N)CO)C(C)C)C(=O)N[C@@H](CCC(N)=O)C(=O)N[C@@H](CC(C)C)C(=O)N[C@@H](CCSC)C(=O)N[C@@H](Cc1c[nH]cn1)C(=O)N[C@@H](CC(N)=O)C(=O)N[C@@H](CC(C)C)C(=O)NCC(=O)N[C@@H](CCCCN)C(=O)N[C@@H](Cc1c[nH]cn1)C(=O)N[C@@H](CC(C)C)C(=O)N[C@@H](CC(N)=O)C(=O)N[C@@H](CO)C(=O)N[C@@H](CCSC)C(=O)N[C@@H](CCC(=O)O)C(=O)N[C@@H](CCCNC(=N)N)C(=O)N[C@H](C(=O)N[C@H]1CC(=O)NCCC[C@@H](C(=O)N[C@@H](CC(C)C)C(=O)N[C@@H](CC(C)C)C(=O)N[C@@H](CCC(N)=O)C(=O)N[C@@H](CC(=O)O)C(=O)N[C@H](C(N)=O)C(C)C)NC(=O)[C@H](CCCNC(=N)N)NC(=O)[C@H](CC(C)C)NC(=O)[C@H](Cc2c[nH]c3ccccc23)NC1=O)C(C)C [[Leu^27]cyclo(Asp^22—Orn^26)—hPTH—(1-31)-NH2] (H-SVSEIQLMHNLGKHLNSMERVDWLR[Orn]LLQDV-NH2; lactam 22-26; N-terminus assumed) | > 200
CC[C@H](C)[C@H](NC(=O)[C@H](CCC(=O)O)NC(=O)[C@H](CO)NC(=O)[C@@H](NC(=O)[C@@H](N)CO)C(C)C)C(=O)N[C@@H](CCC(N)=O)C(=O)N[C@@H](CC(C)C)C(=O)N[C@@H](CCSC)C(=O)N[C@@H](Cc1c[nH]cn1)C(=O)N[C@@H](CC(N)=O)C(=O)N[C@@H](CC(C)C)C(=O)NCC(=O)N[C@@H](CCCCN)C(=O)N[C@@H](Cc1c[nH]cn1)C(=O)N[C@@H](CC(C)C)C(=O)N[C@@H](CC(N)=O)C(=O)N[C@@H](CO)C(=O)N[C@@H](CCSC)C(=O)N[C@@H](CCC(=O)O)C(=O)N[C@@H](CCCNC(=N)N)C(=O)N[C@H](C(=O)N[C@H]1CCC(=O)NCCCC[C@@H](C(=O)N[C@@H](CC(C)C)C(=O)N[C@@H](CC(C)C)C(=O)N[C@@H](CCC(N)=O)C(=O)N[C@@H](CC(=O)O)C(=O)N[C@H](C(=O)N[C@@H](Cc2c[nH]cn2)C(=O)N[C@@H](CC(N)=O)C(=O)N[C@@H](Cc2ccccc2)C(=O)O)C(C)C)NC(=O)[C@H](CCCNC(=N)N)NC(=O)[C@H](CC(C)C)NC(=O)[C@H](Cc2c[nH]c3ccccc23)NC1=O)C(C)C [[Leu^27]cyclo(Glu^22—Lys^26)—hPTH—(1-34)-OH] (H-SVSEIQLMHNLGKHLNSMERVEWLRKLLQDVHNF-OH; lactam 22-26; N-terminus assumed) | 6
CCCC[C@H](NC(=O)[C@H](CO)NC(=O)[C@H](CC(N)=O)NC(=O)[C@H](CC(C)C)NC(=O)[C@H](Cc1c[nH]cn1)NC(=O)[C@H](CCCCN)NC(=O)CNC(=O)[C@H](CC(C)C)NC(=O)[C@H](CC(N)=O)NC(=O)[C@H](Cc1c[nH]cn1)NC(=O)[C@H](CCCC)NC(=O)[C@H](CC(C)C)NC(=O)[C@H](CCC(N)=O)NC(=O)[C@@H](NC(=O)[C@H](CCC(=O)O)NC(=O)[C@H](CO)NC(=O)[C@@H](NC(=O)[C@@H](N)CO)C(C)C)[C@@H](C)CC)C(=O)N[C@@H](CCC(=O)O)C(=O)N[C@@H](CCCNC(=N)N)C(=O)N[C@H](C(=O)N[C@H]1CCC(=O)NCCCC[C@@H](C(=O)N[C@@H](CC(C)C)C(=O)N[C@@H](CC(C)C)C(=O)N[C@@H](CCC(N)=O)C(=O)N[C@@H](CC(=O)O)C(=O)N[C@H](C(N)=O)C(C)C)NC(=O)[C@H](CCCNC(=N)N)NC(=O)[C@H](CC(C)C)NC(=O)[C@H](Cc2c[nH]c3ccccc23)NC1=O)C(C)C [[Nle^8.18, Leu^27]cyclo(Glu^22—Lys^26)—hPTH—(1-31)-NH2] (H-SVSEIQL[Nle]HNLGKHLNS[Nle]ERVEWLRKLLQDV-NH2; lactam 22-26; N-terminus assumed) | 6
CCCC[C@H](NC(=O)[C@@H]1CCCCNC(=O)CC[C@H](NC(=O)[C@@H](NC(=O)[C@H](CCCNC(=N)N)NC(=O)[C@H](CCC(=O)O)NC(=O)[C@H](CCSC)NC(=O)[C@H](CO)NC(=O)[C@H](CC(N)=O)NC(=O)[C@H](CC(C)C)NC(=O)[C@H](Cc2c[nH]cn2)NC(=O)[C@H](CCCCN)NC(=O)CNC(=O)[C@H](CC(C)C)NC(=O)[C@H](CC(N)=O)NC(=O)[C@H](Cc2c[nH]cn2)NC(=O)[C@H](CCSC)NC(=O)[C@H](CC(C)C)NC(=O)[C@H](CCC(N)=O)NC(=O)[C@@H](NC(=O)[C@H](CCC(=O)O)NC(=O)[C@H](CO)NC(=O)[C@@H](NC(=O)[C@@H](N)CO)C(C)C)[C@@H](C)CC)C(C)C)C(=O)N[C@@H](Cc2c[nH]c3ccccc23)C(=O)N[C@@H](CC(C)C)C(=O)N[C@@H](CCCNC(=N)N)C(=O)N1)C(=O)N[C@@H](CC(C)C)C(=O)N[C@@H](CCC(N)=O)C(=O)N[C@@H](CC(=O)O)C(=O)N[C@H](C(N)=O)C(C)C [[Nle^27]cyclo(Glu^22—Lys^26)—hPTH—(1-31)-NH2] (H-SVSEIQLMHNLGKHLNSMERVEWLRK[Nle]LQDV-NH2; lactam 22-26) | 9
